The assay has as its target T1, human GR (Homo sapiens, UniProt P04150).
T1 sequence (P04150 1-777): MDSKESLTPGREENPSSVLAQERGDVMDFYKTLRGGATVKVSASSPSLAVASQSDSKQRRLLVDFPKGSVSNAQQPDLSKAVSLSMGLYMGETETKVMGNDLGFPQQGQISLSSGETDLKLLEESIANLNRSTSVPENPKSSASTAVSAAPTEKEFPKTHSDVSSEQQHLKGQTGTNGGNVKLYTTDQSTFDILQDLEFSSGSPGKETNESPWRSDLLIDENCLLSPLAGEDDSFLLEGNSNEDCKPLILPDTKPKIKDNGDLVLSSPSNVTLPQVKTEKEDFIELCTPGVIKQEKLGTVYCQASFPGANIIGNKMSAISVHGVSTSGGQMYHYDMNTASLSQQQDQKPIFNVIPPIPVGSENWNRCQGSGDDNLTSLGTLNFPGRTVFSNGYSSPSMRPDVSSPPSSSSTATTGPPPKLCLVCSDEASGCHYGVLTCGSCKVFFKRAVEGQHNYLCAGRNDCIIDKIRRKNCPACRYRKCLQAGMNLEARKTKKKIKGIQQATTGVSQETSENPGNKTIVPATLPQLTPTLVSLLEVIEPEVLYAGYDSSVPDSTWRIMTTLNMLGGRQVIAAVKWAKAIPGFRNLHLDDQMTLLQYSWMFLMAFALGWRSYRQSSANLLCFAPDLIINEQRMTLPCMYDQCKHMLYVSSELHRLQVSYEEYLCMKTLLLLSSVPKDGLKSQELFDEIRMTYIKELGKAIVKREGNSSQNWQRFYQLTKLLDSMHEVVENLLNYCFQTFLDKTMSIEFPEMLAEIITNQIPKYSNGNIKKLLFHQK
In words: Transrepression Assay (GITAR), TNFα-β-lactamase reporter gene in U937 cells. The settings on record: for EC50: IP = inflection point; for GITAR > GRAMM % SEP: separation of GITAR Emax over GRAMMER Emax; for Emax: U-937. On the set-up: U937 cells contain an endogenous glucocorticoid receptor (GR); endogenous in cells; host or cells: U937 cells stably transfected with the TNF-α promoter/β-lactamase reporter only. Type of assay: cell-based. In outline: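 Reporter readout used CCF2-AM loading for 70–90 min at room temperature after overnight (~18 h, 37 °C) PMA (5 ng/ml final) and LPS (100 ng/ml final) stimulation of compound-treated (30–45 min) TNFα-β-lactamase U937 cells expressing native GR. Activity was normalised to 100 nM dexamethasone repression.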
A general note: In a reporter assay the amount or activity of a reporter protein is the signal.

[1] abbreviates: Table 1, U937 cells, read-out: Transrepression U937 Cells GITAR IP.
[2] abbreviates: 100 nM dexamethasone = 100% activity, read-out: maximal activity in the transrepression assay.
[3] abbreviates: Table 1, U937 cells, activity repressed by 100 nM dexamethasone = 100%, read-out: Transrepression U937 Cells GITAR Emax (%).
[4] abbreviates: Table 2, U937 cells, read-out: Transactiviation U937 Cells GITAR IP.
Setting [5] is: Table 2, U937 cells, activity repressed by 100 nM dexamethasone = 100%, read-out: Transactiviation U937 Cells GITAR Emax (%).

SMILES strings stand for the structures. Like-named read-outs stand apart in the source and are kept apart here.

Take `CCCNC(=O)c1c(F)cccc1CC[C@]1(O)CCC2=Cc3c(cnn3-c3ccc(F)cc3)C[C@@]21C` [Example 49, 2-fluoro-6-{2-[(4αS,5R)-1-(4-fluorophenyl)-5-hydroxy-4α-methyl-1,4,4α,5,6,7-hexahydrocyclopenta[f]indazol-5-yl]ethyl}-N-propylbenzamide]: the EC50 under setting [1] was found to be 30 nM. The “GITAR > GRAMM % SEP” value (Table 1) is 47%. Moreover, the Emax is, setting by setting: under setting [2], 5 to 100%; under setting [3], 72%.
For `CCNC(=O)c1ccccc1CC[C@]1(O)CCC2=Cc3c(cnn3-c3ccc(F)c(F)c3)C[C@@]21C` [Example 51, 2-{2-[(4αS,5R)-1-(3,4-difluorophenyl)-5-hydroxy-4α-methyl-1,4,4α,5,6,7-hexahydrocyclopenta[f]indazol-5-yl]ethyl}-N-ethylbenzamide], the EC50 under setting [1] stood at 193 nM. Also, the “GITAR > GRAMM % SEP” value (Table 1) was determined as 42%. For the same compound, the Emax was 5 to 100% under setting [2] and 73% under setting [3].
For `COC(=O)C(C)(C)NC(=O)c1ccccc1CC[C@]1(O)CCC2=Cc3c(cnn3-c3ccc(F)cc3)C[C@@]21C` [Example 52, methyl N-(2-{2-[(4αS,5R)-1-(4-fluorophenyl)-5-hydroxy-4α-methyl-1,4,4α,5,6,7-hexahydrocyclopenta[f]indazol-5-yl]ethyl}benzoyl)-2-methylalaninate], the EC50 under setting [1] amounted to 154 nM. Further, the “GITAR > GRAMM % SEP” value (Table 1) is reported as 29%. Further, the Emax under setting [2] fell in the range of 5 to 100% and the Emax under setting [3] was 74%.
`CC(C)(C)CNC(=O)c1c(F)cccc1CC[C@]1(O)CCC2=Cc3c(cnn3-c3ccc(F)cc3)C[C@@]21C` [Example 55, N-(2,2-dimethylpropyl)-2-fluoro-6-{2-[(4αS,5R)-1-(4-fluorophenyl)-5-hydroxy-4α-methyl-1,4,4α,5,6,7-hexahydrocyclopenta[f]indazol-5-yl]ethyl}benzamide]: under setting [1], the EC50 is 187 nM. Also, the “GITAR > GRAMM % SEP” value (Table 1) was 53%. The Emax under setting [2] was in the range of 5 to 100% and the Emax under setting [3] stood at 76%.
In the case of `C=CCNC(=O)c1c(F)cccc1CC[C@]1(O)CCC2=Cc3c(cnn3-c3ccc(F)cc3)C[C@@]21C` [Example 57, N-allyl-2-fluoro-6-{2-[(4αS,5R)-1-(4-fluorophenyl)-5-hydroxy-4α-methyl-1,4,4α,5,6,7-hexahydrocyclopenta[f]indazol-5-yl]ethyl}benzamide], the EC50 under setting [1] worked out at 30 nM. Besides, the “GITAR > GRAMM % SEP” value (Table 1) is listed as 40%. For the same compound, the Emax reads like this: under setting [2], 5 to 100%; under setting [3], 77%.
Consider `COc1ccccc1CC[C@]1(O)CCC2=Cc3c(cnn3-c3ccc(F)cc3)C[C@@]21C` [Example 58 WO 2004/075840 A2, reference compound], for which the EC50 under setting [4] turned out to be 642 nM. Moreover, the “GITAR > GRAMM % SEP” value (Table 2) turned out to be 14%. Moreover, under setting [5], the Emax was determined as 42%.
As for `CC(C)(C)NC(=O)c1c(F)cccc1CC[C@]1(O)CCC2=Cc3c(cnn3-c3ccc(F)cc3)C[C@@]21C` [Example 59, N-(tert-butyl)-2-fluoro-6-{2-[(4αS,5R)-1-(4-fluorophenyl)-5-hydroxy-4α-methyl-1,4,4α,5,6,7-hexahydrocyclopenta[f]indazol-5-yl]ethyl}benzamide], the EC50 under setting [1] is 95 nM. In addition, the “GITAR > GRAMM % SEP” value (Table 1) came to 37%. Also, the Emax is 5 to 100% under setting [2] and 77% under setting [3].
For the compound `CC(C)CNC(=O)c1c(F)cccc1CC[C@]1(O)CCC2=Cc3c(cnn3-c3ccc(F)cc3)C[C@@]21C` [Example 61, 2-fluoro-6-{2-[(4αS,5R)-1-(4-fluorophenyl)-5-hydroxy-4α-methyl-1,4,4α,5,6,7-hexahydrocyclopenta[f]indazol-5-yl]ethyl}-N-isobutylbenzamide], under setting [1], the EC50 is 83 nM. The “GITAR > GRAMM % SEP” value (Table 1) amounted to 44%. The Emax is, setting by setting: under setting [2], 5 to 100%; under setting [3], 79%.
The corresponding values for `CC(C)(C)NC(=O)c1ccccc1CC[C@]1(O)CCC2=Cc3c(cnn3-c3ccc(F)cc3)C[C@@]21C` [Example 62, N-(tert-butyl)-2-{2-[(4αS,5R)-1-(4-fluorophenyl)-5-hydroxy-4α-methyl-1,4,4α,5,6,7-hexahydrocyclopenta[f]indazol-5-yl]ethyl}benzamide] are 246 nM, 56%, 5 to 100% and 79%.
Regarding `C[C@]12Cc3cnn(-c4ccc(F)cc4)c3C=C1CC[C@@]2(O)CCc1ccccc1F` [Example 70 WO 2004/075840 A2, reference compound], under setting [4], the EC50 was found to be 175 nM. Also, for the setting “Table 2”, the “GITAR > GRAMM % SEP” value is on record as −62%. For the same compound, the Emax under setting [5] stood at 83%.
In the case of `CC(C)S(=O)(=O)NCc1c(F)cccc1CC[C@]1(O)CCC2=Cc3c(cnn3-c3ccc(F)cc3)C[C@@]21C` [Example 83, N-(2-fluoro-6-{2-[(4αS,5R)-1-(4-fluorophenyl)-5-hydroxy-4α-methyl-1,4,4α,5,6,7-hexahydrocyclopenta[f]indazol-5-yl]ethyl}benzyl)propane-2-sulfonamide], under setting [1], the EC50 was determined as 94 nM. Under “Table 1”, the “GITAR > GRAMM % SEP” value is given as 33%. The Emax runs as follows: under setting [2], 5 to 100%; under setting [3], 54%.
As to `CCS(=O)(=O)NCc1c(F)cccc1CC[C@]1(O)CCC2=Cc3c(cnn3-c3ccc(F)cc3)C[C@@]21C` [Example 84, N-(2-fluoro-6-{2-[(4αS,5R)-1-(4-fluorophenyl)-5-hydroxy-4α-methyl-1,4,4α,5,6,7-hexahydrocyclopenta[f]indazol-5-yl]ethyl}benzyl)ethanesulfonamide], the EC50 under setting [1] stood at 96 nM. The “GITAR > GRAMM % SEP” value (Table 1) was found to be 37%. The Emax was 5 to 100% under setting [2] and 60% under setting [3].
Turning to `C[C@]12Cc3cnn(-c4ccc(F)cc4)c3C=C1CC[C@@]2(O)CCc1cccc(F)c1CNS(=O)(=O)C(Cl)Cl` [Example 85, 1,1-dichloro-N-(2-fluoro-6-{2-[(4αS,5R)-1-(4-fluorophenyl)-5-hydroxy-4α-methyl-1,4,4α,5,6,7-hexahydrocyclopenta[f]indazol-5-yl]ethyl}benzyl)methanesulfonamide], the EC50 under setting [1] was 182 nM. For the same compound, the “GITAR > GRAMM % SEP” value (Table 1) came to 44%. Also, the Emax under setting [2] was in the range of 5 to 100% and the Emax under setting [3] was 63%.
The corresponding values for `C[C@]12Cc3cnn(-c4ccc(F)cc4)c3C=C1CC[C@@]2(O)CCc1cccc(F)c1CNS(=O)(=O)CC(F)(F)F` [Example 86, 2,2,2-trifluoro-N-(2-fluoro-6-{2-[(4αS,5R)-1-(4-fluorophenyl)-5-hydroxy-4α-methyl-1,4,4α,5,6,7-hexahydrocyclopenta[f]indazol-5-yl]ethyl}benzyl)ethanesulfonamide] are 246 nM, 53%, 5 to 100% and 66%.
With `C[C@]12Cc3cnn(-c4ccc(F)cc4)c3C=C1CC[C@@]2(O)CCc1cccc(F)c1CNS(=O)(=O)C1CC1` [Example 88, N-(2-fluoro-6-{2-[(4αS,5R)-1-(4-fluorophenyl)-5-hydroxy-4α-methyl-1,4,4α,5,6,7-hexahydrocyclopenta[f]indazol-5-yl]ethyl}benzyl)cyclopropanesulfonamide], under setting [1], the EC50 amounted to 90 nM. The “GITAR > GRAMM % SEP” value (Table 1) turned out to be 37%. For the same compound, the Emax runs as follows: under setting [2], 5 to 100%; under setting [3], 69%.
The corresponding values for `CN(C)S(=O)(=O)NCc1c(F)cccc1CC[C@]1(O)CCC2=Cc3c(cnn3-c3ccc(F)cc3)C[C@@]21C` [Example 89, N′-(2-fluoro-6-{2-[(4αS,5R)-1-(4-fluorophenyl)-5-hydroxy-4α-methyl-1,4,4α,5,6,7-hexahydrocyclopenta[f]indazol-5-yl]ethyl}benzyl)-N,N-dimethylsulfamide] are 64 nM, 50%, 5 to 100% and 70%.
Regarding `C[C@]12Cc3cnn(-c4ccc(F)cc4)c3C=C1CC[C@@]2(O)CCc1ccccc1C1(NS(=O)(=O)C2CC2)CC1` [Example 91, N-[1-(2-{2-[(4αS,5R)-1-(4-fluorophenyl)-5-hydroxy-4α-methyl-1,4,4α,5,6,7-hexahydrocyclopenta[f]indazol-5-yl]ethyl}phenyl)cyclopropyl]cyclopropanesulfonamide], the EC50 under setting [1] is 231 nM. Besides, the “GITAR > GRAMM % SEP” value (Table 1) came out at 26%. Under setting [3], the Emax was found to be 72%.

For the origin of these results see patent publication US8119681B2, “2-[1-phenyl-5-hydroxy or methoxy-4alpha-methyl-hexahydrocyclopenta [ƒ]indazole-5-YL]ethyl phenyl derivatives as glucocorticoid receptor ligands” (Merck Sharp & Dohme Corp., priority 2006, dated 2012).
